According to patent US20210317140A1, “Heterocyclic Compounds and Methods of Use” (MEDIVATION TECHNOLOGIES, INC, priority 2013, published 2021):

What was measured:
Type in all cases: biochemical
BMX/ETK = biological target: T1, BMX/ETK (Homo sapiens, UniProt P51813); test: BMX/ETK kinase profiling (BTK protocol); settings: for IC50: 10 dose IC50; for BMX/ETK @ 0.3 μM (% Inh): 0.3 μM compound
T1 construct: purchased Reaction Biology Corporation
T1 sequence (P51813 1-675): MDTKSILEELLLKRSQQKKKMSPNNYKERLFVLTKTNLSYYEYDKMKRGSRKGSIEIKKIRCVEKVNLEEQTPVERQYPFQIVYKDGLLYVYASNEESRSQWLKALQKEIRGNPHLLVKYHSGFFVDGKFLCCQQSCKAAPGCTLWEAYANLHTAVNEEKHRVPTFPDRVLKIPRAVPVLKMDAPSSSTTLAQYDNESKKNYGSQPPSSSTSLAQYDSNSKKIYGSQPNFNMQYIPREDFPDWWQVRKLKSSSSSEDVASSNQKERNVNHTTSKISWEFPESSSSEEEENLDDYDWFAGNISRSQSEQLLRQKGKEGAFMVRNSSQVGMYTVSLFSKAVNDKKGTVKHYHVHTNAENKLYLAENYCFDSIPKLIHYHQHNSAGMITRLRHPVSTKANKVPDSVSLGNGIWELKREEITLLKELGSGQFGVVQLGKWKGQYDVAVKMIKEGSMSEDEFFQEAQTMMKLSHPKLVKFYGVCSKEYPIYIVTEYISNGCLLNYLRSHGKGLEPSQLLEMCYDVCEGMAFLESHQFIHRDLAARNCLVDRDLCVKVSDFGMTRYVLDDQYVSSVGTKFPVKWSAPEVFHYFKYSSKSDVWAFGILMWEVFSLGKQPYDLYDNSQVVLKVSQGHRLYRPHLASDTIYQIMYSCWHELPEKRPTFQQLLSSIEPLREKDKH
Method: BTK assay: In vitro profiling protein kinases was performed using the “HotSpot” assay platform. Briefly, specific kinase/substrate pairs along with required cofactors were prepared in reaction buffer. Compounds were prepared as 10 mM stock solutions in DMSO. Compounds were delivered into the reaction, followed 15-20 minutes later by addition of a mixture of ATP (Sigma, St. Louis Mo.) and ^33P ATP (Perkin Elmer, Waltham Mass.) to a final concentration of 10 μM. Reactions were carried out at RT for 120 min, followed by spotting of the reactions onto P81 ion exchange filter paper (Whatman Inc., Piscataway, N.J.). Unbound phosphate was removed by extensive washing of filters in 0.75% Phosphoric acid. […] IC50 values and curve fits were obtained using Prism (GraphPad Software). Buffer Conditions: 20 mM Hepes (pH 7.5), 10 mM MgCl2, 1 mM EGTA, 0.02% Brij35, 0.02 mg/mL BSA, 0.1 mM Na3VO4, 2 mM DTT, 1% DMSO.
Compounds of the invention were profiled in a 10 dose IC50 panel against BMX/ETK, ITK and TEC kinases, provided by Reaction Biology Corporation, applied to the BTK protocol provided in Example B1.

PI3Kγ = biological target: T2, PI3Kγ (Homo sapiens, UniProt P48736); test: PI3Kγ isoform profiling (PI3Kδ protocol); settings: for PI3Kγ @ 0.3 μM (% Inh): 0.3 μM compound
T2 construct: purchased Reaction Biology Corporation
Text: (§1) PI3Kδ assay: The PIP3 product is detected by displacement of biotin-PIP3 from an energy transfer complex consisting of Europium labeled anti-GST monoclonal antibody, a GST-tagged pleckstrin homology (PH) domain, biotinylated PIP3 and Streptavidin-Allophycocyanin (APC). Excitation of Europium in the complex results in an energy transfer to the APC and a fluorescent emission at 665 nm. The PIP3 product formed by PI 3-Kinase(h) activity displaces biotin-PIP3 from the complex resulting in a loss of energy transfer and thus a decrease in signal. This is a 3-step reaction: First, the kinase reaction with PIP2 substrate is carried out in the presence of ATP (10 μM), and the reaction is quenched with stop Solution, and then finally detect by adding Detection Mixture followed by incubation (10 min). Reaction procedure: 1) Prepare substrate in freshly prepared Reaction Buffer. 2) Deliver kinase into the substrate solution and gently mix. 3) Deliver compounds in 100% DMSO (1 μM) into the kinase reaction mixture by Acoustic technology (Echo550; nanoliter range), incubate for 10 min at RT. 4) Deliver ATP into the reaction mixture to initiate the reaction. 5) Incubate for 30 min at 30° C. 6) Quench the reaction with Stop Solution. 7) Add Detection Mixture, and incubate for overnight. 8) Measure HTRF: Ex=320 nm, ratio of Em=615 nm and Em=665 nm. The emission ratio is converted into μM PIP3 production based on PIP3 standard curves. The nonlinear regression to obtain the standard curve and IC50 values are performed using Graphpad Prism software. Assay Buffer: HEPES 50 mM (pH7.0), NaN3 0.02%, BSA 0.01%, Orthovanadate 0.1 mM, 1% DMSO. Detection buffer: HEPES 10 mM (pH7.0), BSA 0.02%, KF 0.16 M, EDTA 4 mM. Substrate: 10 μM PIP2 substrate (PI(4,5)P2).
(§2) Compounds of the invention were profiled in a 10 dose IC50 panel against PI3Kα, PI3Kβ, and PI3Kγ kinases, provided by Reaction Biology Corporation, applied to the PI3Kδ protocol provided in Example B1.

PI3Kβ = biological target: T3, PI3Kβ (Homo sapiens, UniProt P42338); test: PI3Kβ isoform profiling (PI3Kδ protocol); settings: for PI3Kβ @ 0.3 μM (% Inh): 0.3 μM compound
T3 construct: purchased Reaction Biology Corporation
Text: as §1, §2

PI3Kδ = biological target: T4, PI3Kδ (Homo sapiens, UniProt O00329); test: PI3Kδ kinase assay (HTRF, PIP3 detection); settings: for IC50: 10 dose IC50, 10 μM ATP; for PI3Kδ @ 0.01 μM (% Inh): 0.01 μM compound; for PI3Kδ @ 0.01 μM (% Inh) / PI3Kδ @ 0.1 μM (% Inh) / PI3Kδ @ 1 μM (% Inh): 10 μM ATP; for PI3Kδ @ 0.1 μM (% Inh): 0.1 μM compound; for PI3Kδ @ 1 μM (% Inh): 1 μM compound
T4 construct: purchased Reaction Biology Corporation
Outline: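 10-dose HTRF assay; kinase preincubated with compound 10 min at RT, then reacted with 10 μM PIP2 and 10 μM ATP for 30 min at 30 °C in HEPES pH 7.0 buffer. PIP3 product displaces biotin-PIP3 from the Eu/APC complex; signal converted to PIP3 via standard curve, IC50 by nonlinear regression.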

T4 sequence (O00329 whole entry): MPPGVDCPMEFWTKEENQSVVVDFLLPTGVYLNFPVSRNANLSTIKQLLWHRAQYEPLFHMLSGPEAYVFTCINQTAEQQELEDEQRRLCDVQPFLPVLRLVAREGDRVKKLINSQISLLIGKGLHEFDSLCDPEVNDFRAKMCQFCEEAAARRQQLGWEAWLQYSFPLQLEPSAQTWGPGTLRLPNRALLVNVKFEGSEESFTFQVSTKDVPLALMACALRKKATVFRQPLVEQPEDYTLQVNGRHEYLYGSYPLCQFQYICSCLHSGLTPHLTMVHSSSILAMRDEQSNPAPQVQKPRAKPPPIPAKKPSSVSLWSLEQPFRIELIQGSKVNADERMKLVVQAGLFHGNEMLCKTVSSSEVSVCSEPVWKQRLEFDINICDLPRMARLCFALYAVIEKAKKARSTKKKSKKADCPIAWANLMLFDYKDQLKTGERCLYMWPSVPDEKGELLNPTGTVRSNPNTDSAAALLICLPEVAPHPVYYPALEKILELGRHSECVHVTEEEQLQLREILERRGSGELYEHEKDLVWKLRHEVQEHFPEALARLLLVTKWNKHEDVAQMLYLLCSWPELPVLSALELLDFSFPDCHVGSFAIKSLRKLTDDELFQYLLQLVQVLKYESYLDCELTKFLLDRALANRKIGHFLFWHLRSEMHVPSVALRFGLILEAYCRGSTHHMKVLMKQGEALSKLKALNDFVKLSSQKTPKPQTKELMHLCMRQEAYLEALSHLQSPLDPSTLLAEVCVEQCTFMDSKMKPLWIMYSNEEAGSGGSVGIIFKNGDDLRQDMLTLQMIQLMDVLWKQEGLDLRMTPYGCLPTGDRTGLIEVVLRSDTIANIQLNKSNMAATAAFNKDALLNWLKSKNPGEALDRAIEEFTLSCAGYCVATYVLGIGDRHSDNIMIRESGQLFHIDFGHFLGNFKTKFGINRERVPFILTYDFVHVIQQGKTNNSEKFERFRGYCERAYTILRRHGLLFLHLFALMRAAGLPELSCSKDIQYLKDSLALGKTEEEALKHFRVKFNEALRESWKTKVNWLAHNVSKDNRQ
T4 sequence (P27986 whole entry partner): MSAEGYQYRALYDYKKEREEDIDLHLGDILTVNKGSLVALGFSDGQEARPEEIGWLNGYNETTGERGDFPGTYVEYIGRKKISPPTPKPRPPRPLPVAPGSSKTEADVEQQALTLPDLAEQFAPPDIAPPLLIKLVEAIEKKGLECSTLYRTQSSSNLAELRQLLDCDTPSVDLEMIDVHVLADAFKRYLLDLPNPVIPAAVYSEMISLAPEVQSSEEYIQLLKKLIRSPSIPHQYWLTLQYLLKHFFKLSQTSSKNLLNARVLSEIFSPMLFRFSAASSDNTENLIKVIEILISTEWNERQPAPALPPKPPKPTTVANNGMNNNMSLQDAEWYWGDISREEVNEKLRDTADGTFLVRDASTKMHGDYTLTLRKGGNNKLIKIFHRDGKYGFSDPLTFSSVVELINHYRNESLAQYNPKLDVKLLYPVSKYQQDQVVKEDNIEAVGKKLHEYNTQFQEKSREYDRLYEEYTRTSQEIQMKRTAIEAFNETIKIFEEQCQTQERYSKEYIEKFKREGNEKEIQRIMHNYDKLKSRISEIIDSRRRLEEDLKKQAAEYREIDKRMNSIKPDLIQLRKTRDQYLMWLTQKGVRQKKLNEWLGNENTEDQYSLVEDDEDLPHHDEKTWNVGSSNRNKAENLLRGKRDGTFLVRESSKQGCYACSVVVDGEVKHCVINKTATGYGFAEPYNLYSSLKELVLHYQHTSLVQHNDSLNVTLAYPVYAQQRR
T3 sequence (P42338 whole entry, canonical isoform): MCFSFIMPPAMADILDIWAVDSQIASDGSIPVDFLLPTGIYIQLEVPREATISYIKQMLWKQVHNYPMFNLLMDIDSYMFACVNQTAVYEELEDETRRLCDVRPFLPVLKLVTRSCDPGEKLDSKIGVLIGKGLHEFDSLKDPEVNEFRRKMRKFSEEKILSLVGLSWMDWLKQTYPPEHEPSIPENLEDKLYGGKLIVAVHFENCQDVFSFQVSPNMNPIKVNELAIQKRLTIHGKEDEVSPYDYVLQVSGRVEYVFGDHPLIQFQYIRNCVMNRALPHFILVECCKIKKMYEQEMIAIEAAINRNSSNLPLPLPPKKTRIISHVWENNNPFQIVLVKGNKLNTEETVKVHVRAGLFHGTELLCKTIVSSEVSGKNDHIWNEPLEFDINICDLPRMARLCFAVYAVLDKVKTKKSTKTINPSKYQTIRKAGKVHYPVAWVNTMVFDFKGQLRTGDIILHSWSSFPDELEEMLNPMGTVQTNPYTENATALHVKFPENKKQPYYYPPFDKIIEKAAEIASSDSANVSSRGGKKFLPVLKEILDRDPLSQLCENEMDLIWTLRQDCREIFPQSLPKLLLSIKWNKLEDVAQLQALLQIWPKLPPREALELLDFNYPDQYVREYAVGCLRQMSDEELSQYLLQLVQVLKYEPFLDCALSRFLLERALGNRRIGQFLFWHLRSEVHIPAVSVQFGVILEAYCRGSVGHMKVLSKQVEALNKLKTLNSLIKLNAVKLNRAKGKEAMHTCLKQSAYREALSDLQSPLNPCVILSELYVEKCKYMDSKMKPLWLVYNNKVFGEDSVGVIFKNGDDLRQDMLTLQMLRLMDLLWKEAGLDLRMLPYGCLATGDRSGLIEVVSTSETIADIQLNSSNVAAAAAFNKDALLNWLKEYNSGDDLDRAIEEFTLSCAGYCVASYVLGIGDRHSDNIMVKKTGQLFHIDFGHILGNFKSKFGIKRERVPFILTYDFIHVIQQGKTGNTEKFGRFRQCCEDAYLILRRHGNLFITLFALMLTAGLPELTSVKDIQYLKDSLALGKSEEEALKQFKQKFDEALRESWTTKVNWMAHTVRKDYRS
T3 sequence (P27986 whole entry partner, canonical isoform): as the sequence (P27986 whole entry partner) above
T2 sequence (P48736 whole entry, canonical isoform): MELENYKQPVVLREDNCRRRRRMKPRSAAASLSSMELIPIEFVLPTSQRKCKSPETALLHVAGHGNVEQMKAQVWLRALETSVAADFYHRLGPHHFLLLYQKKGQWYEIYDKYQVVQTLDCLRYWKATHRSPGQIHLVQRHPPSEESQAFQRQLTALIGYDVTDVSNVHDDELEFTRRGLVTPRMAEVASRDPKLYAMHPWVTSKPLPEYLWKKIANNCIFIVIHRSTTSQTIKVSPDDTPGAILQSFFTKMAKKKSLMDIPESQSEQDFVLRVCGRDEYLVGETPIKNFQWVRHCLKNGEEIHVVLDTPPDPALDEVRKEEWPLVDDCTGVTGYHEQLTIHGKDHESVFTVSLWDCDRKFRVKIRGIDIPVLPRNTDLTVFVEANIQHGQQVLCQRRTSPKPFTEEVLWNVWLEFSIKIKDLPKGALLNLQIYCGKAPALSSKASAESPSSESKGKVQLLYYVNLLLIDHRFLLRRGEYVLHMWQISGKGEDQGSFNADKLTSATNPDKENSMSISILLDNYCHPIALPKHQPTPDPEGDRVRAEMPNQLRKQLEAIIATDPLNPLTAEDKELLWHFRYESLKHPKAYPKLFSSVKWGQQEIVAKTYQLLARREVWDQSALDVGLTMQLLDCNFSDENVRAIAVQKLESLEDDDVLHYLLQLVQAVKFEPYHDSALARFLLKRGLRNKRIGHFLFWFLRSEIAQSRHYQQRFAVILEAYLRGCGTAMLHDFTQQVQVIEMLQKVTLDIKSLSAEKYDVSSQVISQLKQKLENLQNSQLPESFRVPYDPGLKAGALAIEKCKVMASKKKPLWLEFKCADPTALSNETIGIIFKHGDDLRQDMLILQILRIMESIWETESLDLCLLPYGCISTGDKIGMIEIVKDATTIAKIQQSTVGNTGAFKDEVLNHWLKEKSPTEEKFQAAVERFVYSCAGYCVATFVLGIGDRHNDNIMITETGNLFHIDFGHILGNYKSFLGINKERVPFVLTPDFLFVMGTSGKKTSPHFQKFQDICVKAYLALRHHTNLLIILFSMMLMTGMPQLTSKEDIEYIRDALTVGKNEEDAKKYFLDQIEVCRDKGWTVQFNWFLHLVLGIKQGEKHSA

Row | IC50 (PI3Kδ) [nM] | BMX/ETK @ 0.3 μM (% Inh) (BMX/ETK) | PI3Kγ @ 0.3 μM (% Inh) (PI3Kγ) | PI3Kβ @ 0.3 μM (% Inh) (PI3Kβ) | PI3Kδ @ 0.01 μM (% Inh) (PI3Kδ) | PI3Kδ @ 0.1 μM (% Inh) (PI3Kδ) | PI3Kδ @ 1 μM (% Inh) (PI3Kδ) | BMX/ETK @ 0.3 μM (% Inh) (BMX/ETK; 0.3 µM) | PI3Kγ @ 0.3 μM (% Inh) (PI3Kγ; 0.3 µM) | PI3Kβ @ 0.3 μM (% Inh) (PI3Kβ; 0.3 µM) | Compound | IC50 (BMX/ETK) [nM] | IC50 (PI3Kγ; 10 dose IC50) [nM] | IC50 (PI3Kβ; 10 dose IC50) [nM]
1 | 62.1 | 97.14 | 57.6 | 41.93 | 26.61 | 62.53 | – | – | – | – | Nc1ncnc2c1c(-c1cc(O)c(F)c(F)c1)cn2C1Cc2ccccc2C1 [Compound No. 101, 5-[4-amino-7-(2,3-dihydro-1H-inden-2-yl)-7H-pyrrolo[2,3-d]pyrimidin-5-yl]-2,3-difluorophenol] | – | – | –
2 | 32.1 | 78.92 | 51.6 | 20.68 | – | 57.97 | 87.4 | – | – | – | COc1ccc(-c2nn(C3Cc4ccccc4C3)c3ncnc(N)c23)cc1O [Compound No. 68, 5-[4-amino-1-(2,3-dihydro-1H-inden-2-yl)-1H-pyrazolo[3,4-d]pyrimidin-3-yl]-2-methoxyphenol] | – | – | –
3 | 2.5 | 4.6 | 57.81 | 67.67 | – | 93.99 | 100.0 | – | – | – | Nc1ncnc2c1c(-c1cc(O)c(F)c(C(F)(F)F)c1)nn2C1Cc2ccccc2C1 [Compound No. 102, 5-[4-amino-1-(2,3-dihydro-1H-inden-2-yl)-1H-pyrazolo[3,4-d]pyrimidin-3-yl]-2-fluoro-3-(trifluoromethyl)phenol] | – | – | –
4 | 44.7 | 107.37 | 57.52 | 39.8 | 29.01 | 71.71 | – | – | – | – | Nc1ncnc2c1c(-c1ccc(Cl)c(O)c1F)nn2C1Cc2ccccc2C1 [Compound No. 100, 3-[4-amino-1-(2,3-dihydro-1H-inden-2-yl)-1H-pyrazolo[3,4-d]pyrimidin-3-yl]-6-chloro-2-fluorophenol] | – | – | –
5 | 108 | 73.26 | 19.7 | 34.21 | – | 18.95 | – | – | – | – | Nc1ncnc2c1c(-c1ccc3cc[nH]c3c1)nn2C1CCc2ccccc2C1 (racemic) [compound 18, 3-(1H-indol-6-yl)-1-(1,2,3,4-tetrahydronaphthalen-2-yl)-1H-pyrazolo[3,4-d]pyrimidin-4-amine] | – | – | –
6 | 9.1 | – | – | – | – | 77.7 | – | 84.79 | 38.58 | 55.06 | Nc1ncnc2c1c(-c1cc(O)cc(F)c1)nn2C1CCc2ccccc2C1 (single isomer, unassigned) [6a, 3-(4-amino-1-(1,2,3,4-tetrahydronaphthalen-2-yl)-1H-pyrazolo[3,4-d]pyrimidin-3-yl)-5-fluorophenol] | – | – | –
7 | 7.7 | – | – | – | – | 79.6 | – | 71.49 | 45.57 | 69.23 | Nc1ncnc2c1c(-c1cc(O)cc(F)c1)nn2C1CCc2ccccc2C1 (single isomer, unassigned) [6b, 3-(4-amino-1-(1,2,3,4-tetrahydronaphthalen-2-yl)-1H-pyrazolo[3,4-d]pyrimidin-3-yl)-5-fluorophenol] | – | – | –
8 | 12.9 | 90.55 | 45.49 | 49.12 | – | – | – | – | – | – | Nc1ncnc2c1c(-c1cc(O)c(Cl)c(Cl)c1)cn2C1Cc2ccccc2C1 [Compound No. 107, 5-[4-amino-7-(2,3-dihydro-1H-inden-2-yl)-7H-pyrrolo[2,3-d]pyrimidin-5-yl]-2,3-dichlorophenol] | – | – | –
9 | 21.2 | 110.06 | 72.89 | 47.09 | 24.46 | 59.57 | – | – | – | – | Nc1ncnc2c1c(-c1ccc(Cl)c(O)c1)cn2C1Cc2ccccc2C1 [Compound No. 93, 5-[4-amino-7-(2,3-dihydro-1H-inden-2-yl)-7H-pyrrolo[2,3-d]pyrimidin-5-yl]-2-chlorophenol] | – | – | –
10 | 119 | 75.85 | 30.41 | 19.09 | – | 57.87 | 89.73 | – | – | – | COc1cc(-c2nn(C3Cc4ccccc4C3)c3ncnc(N)c23)ccc1C [Compound No. 49, 1-(2,3-dihydro-1H-inden-2-yl)-3-(3-methoxy-4-methylphenyl)-1H-pyrazolo[3,4-d]pyrimidin-4-amine] | – | – | –
11 | 1.9 | 72.12 | 59.21 | 68.12 | 82.64 | 93.12 | – | – | – | – | N#Cc1cc(-c2cn(C3Cc4ccccc4C3)c3ncnc(N)c23)cc(O)c1F [compound 115, 5-[4-amino-7-(2,3-dihydro-1H-inden-2-yl)-7H-pyrrolo[2,3-d]pyrimidin-5-yl]-2-fluoro-3-hydroxybenzonitrile] | – | – | –
12 | 3.5 | 85.6 | 68.03 | 73.05 | – | 87.14 | 91.62 | – | – | – | Nc1ncnc2c1c(-c1cc(O)c(F)c(F)c1)nn2C1Cc2ccccc2C1 [Compound No. 81, 5-[4-amino-1-(2,3-dihydro-1H-inden-2-yl)-1H-pyrazolo[3,4-d]pyrimidin-3-yl]-2,3-difluorophenol] | – | – | –
13 | – | – | – | – | – | – | – | – | – | – | Nc1ncnc2c1c(-c1ccc(Br)c(O)c1)nn2C1Cc2ccccc2C1 [compound 2, 5-(4-amino-1-(2,3-dihydro-1H-inden-2-yl)-1H-pyrazolo[3,4-d]pyrimidin-3-yl)-2-bromophenol] | 7.7 | – | –

Row | Compound | IC50 (PI3Kδ) [nM] | BMX/ETK @ 0.3 μM (% Inh) (BMX/ETK) | PI3Kγ @ 0.3 μM (% Inh) (PI3Kγ) | PI3Kβ @ 0.3 μM (% Inh) (PI3Kβ) | PI3Kδ @ 0.01 μM (% Inh) (PI3Kδ) | PI3Kδ @ 0.1 μM (% Inh) (PI3Kδ) | PI3Kδ @ 1 μM (% Inh) (PI3Kδ) | BMX/ETK @ 0.3 μM (% Inh) (BMX/ETK; 0.3 µM) | PI3Kγ @ 0.3 μM (% Inh) (PI3Kγ; 0.3 µM) | PI3Kβ @ 0.3 μM (% Inh) (PI3Kβ; 0.3 µM) | IC50 (BMX/ETK) [nM] | IC50 (PI3Kγ; 10 dose IC50) [nM] | IC50 (PI3Kβ; 10 dose IC50) [nM]
14 | Nc1ncnc2c1c(-c1cc(O)cc(F)c1)nn2C1Cc2ccccc2C1 [compound 3, 3-(4-amino-1-(2,3-dihydro-1H-inden-2-yl)-1H-pyrazolo[3,4-d]pyrimidin-3-yl)-5-fluorophenol] | 7.9 | – | – | – | – | – | – | – | – | – | 189 | 53.5 | 90.8
